Laboratory results: PubChem BioAssay (NCI)
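Test compounds were applied to cells in 96-well plates for 48 hours at 5 doses. At the TGI there is no net growth.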

How the values were obtained:
Test in all cases: NCI tumour cell line growth inhibition, 48 h
SK-MEL-5 melanoma = tested on: SK-MEL-5 melanoma
OVCAR-8 ovarian = tested on: OVCAR-8 ovarian
RPMI-8226 leukemia = tested on: RPMI-8226 leukemia
UACC-62 melanoma = tested on: UACC-62 melanoma
SK-MEL-28 melanoma = tested on: SK-MEL-28 melanoma
SW-620 colon = tested on: SW-620 colon
PC-3 prostate = tested on: PC-3 prostate
SNB-75 CNS = tested on: SNB-75 CNS
K-562 leukemia = tested on: K-562 leukemia
SK-OV-3 ovarian = tested on: SK-OV-3 ovarian

Row | Compound | TGI (SK-MEL-5 melanoma) [µM] | TGI (OVCAR-8 ovarian) [µM] | TGI (RPMI-8226 leukemia) [µM] | TGI (UACC-62 melanoma) [µM] | TGI (SK-MEL-28 melanoma) [µM] | TGI (SW-620 colon) [µM] | TGI (PC-3 prostate) [µM] | TGI (SNB-75 CNS) [µM] | TGI (K-562 leukemia) [µM] | TGI (SK-OV-3 ovarian) [µM]
1 | COc1cccc(C(=O)Oc2ccc(OS(=O)(=O)c3ccc(C)cc3)cc2)c1C#N | 31.2 | > 100 | > 100 | > 100 | > 100 | > 100 | > 100 | > 100 | > 100 | 
2 | CC1(C)CC(=O)C(C=NC(=S)c2ccccc2)=C(O)C1 | > 100 | > 100 |  | > 100 | > 100 | > 100 | > 100 | > 100 |  | > 100
3 | C=CCn1c(N)c(C#N)c(C#N)c1-c1ccccc1 | > 100 | > 100 | > 100 | > 100 |  | > 100 | > 100 | > 100 | > 100 | > 100
4 | CO/N=C(\C)c1ccc(Nc2nc3ccccc3c3occc23)cc1 | 29.8 | 33.9 | 43.4 | 24.7 |  |  | 30.3 |  | 50.7 | 29.5
5 | Cc1c2n(c(=O)[nH]c1=O)C1OC(CO)C(O2)C1O (stereo not given) | > 100 | > 100 | > 100 | > 100 | > 100 | > 100 |  | > 100 | > 100 | > 100
6 | CC(=O)c1ccccc1NP(=O)(c1ccccc1)c1ccccc1 | > 100 | > 100 | 62.8 | > 100 | > 100 | > 100 | > 100 |  | > 100 | 60.8
7 | COc1cccc(CCNC(=O)Cc2ccccc2CCO)c1 | > 100 | > 100 |  | > 100 | > 100 | > 100 | > 100 | > 100 | > 100 | > 100
8 | O=C1COc2cccnc2N1CCCCO | > 100 |  | > 100 | > 100 | > 100 | > 100 | > 100 | > 100 |  | > 100
9 | CCCCCCNc1n[nH]c(=O)c2c1nnn2Cc1ccccc1 | > 100 | > 100 | > 100 |  | > 100 |  | > 100 |  | > 100 | 
10 | O=C(O)CCCc1nc2c(n1Cc1ccccc1)C(=O)c1ccccc1C2=O |  | > 100 | 68.8 | > 100 | > 100 | > 100 |  |  | > 100 | > 100
11 | O=C(/C=C/c1ccccc1)Oc1cccc(O)c1 | > 100 | > 100 | > 100 | > 100 | 66.8 | 37.9 | > 100 | > 100 |  | > 100
12 | NC(N)=NCCN1CC2CCC(CC2)C1 | > 100 | > 100 | > 100 | > 100 | > 100 | > 100 | > 100 | 98.7 |  | > 100
13 | CCN(CC)Cc1ccc(C(=S)Nc2ccc(Cl)cc2)s1 | 16.9 | 18.2 | 39.6 | 23 | 20.8 | 36.8 | 28.6 |  | 18.9 | 29.7
14 | CO/N=C(\C(=O)OC(=NC1CCCCC1)NC1CCCCC1)c1csc(NC(c2ccccc2)(c2ccccc2)c2ccccc2)n1 | > 10 | > 10 | > 10 |  | > 10 | > 10 | > 10 | > 10 | > 10 | > 10
15 | N#Cc1n[nH]n(-c2ccc(Br)cc2)c1=O |  | > 100 | > 100 | > 100 | > 100 | > 100 | > 100 | > 100 | > 100 | > 100
16 | C[C@H]1[C@H]2[C@H]3CC[C@@H]4[C@@]5(C)CC[C@H](O)C(C)(C)[C@@H]5CC[C@@]4(C)[C@]3(C)C[C@H](O)[C@@]2(C)C[C@H]2O[C@]21C | 42.6 | 48.2 | > 100 | 76 | 36.9 | 70.1 | 27.1 |  |  | 39.3
17 | Cn1c(=O)c2c(ncn2CCNC(CO)C(O)c2ccc([N+](=O)[O-])cc2)n(C)c1=O (stereo not given) | > 100 | > 100 | > 100 | > 100 | > 100 |  | > 100 |  | > 100 | > 100
18 | CCCNC(=O)NNC(=O)c1c[nH]c2nc(C)ccc2c1=O | > 100 | > 100 | > 100 | > 100 | > 100 | > 100 | > 100 |  | > 100 | 
